Where two headings read alike, the source gives them in different places. Non-standard residues stand in square brackets, D forms with d. No end group written: not given here. *: point of attachment. Biotin = O=C1N[C@H]2[C@H](CS[C@H]2CCCCC(=O)*)N1; R(dz) = photo-arginine
Tested on: HEK293T nuclear lysates
Assay: SILAC‐based pull‐down proteomics H4K5acK8ac/H4K5 (probes 8/5)
Format: binding, human

probe 8: H4K5acK8ac peptide probe with photo‐arginine R(dz) and K(biotin) (SG[R(dz)]GK(Ac)GGK(Ac)GLGKGGK(Biotin))
A6 log2 (H4K5ac8ac/H4K5): 0.04066 | B6 log2 (H4K5ac8ac/H4K5): 0.03161 | proteins enriched (SILAC proteomics H4K5acK8ac/H4K5) (365 nm UV 30 min, streptavidin enrichment, n = 2): YEATS4 was enriched | A6 log2 (H4K5ac8ac/H4K5) (protein ACO2 (Q99798), replicate A6): 0.4428 | B6 log2 (H4K5ac8ac/H4K5) (protein ACO2 (Q99798), replicate B6): 0.07379 | A6 log2 (H4K5ac8ac/H4K5) (protein ACOT7 (O00154), replicate A6): 0.4709 | B6 log2 (H4K5ac8ac/H4K5) (protein ACOT7 (O00154), replicate B6): -0.02566 | A6 log2 (H4K5ac8ac/H4K5) (protein AGPS (O00116), replicate A6): -0.04144 | B6 log2 (H4K5ac8ac/H4K5) (protein AGPS (O00116), replicate B6): 0.004198 | A6 log2 (H4K5ac8ac/H4K5) (protein ALDH18A1 (P54886), replicate A6): 0.1932 | B6 log2 (H4K5ac8ac/H4K5) (protein ALDH18A1 (P54886), replicate B6): 0.05067 | A6 log2 (H4K5ac8ac/H4K5) (protein BUB3 (J3QT28), replicate A6): 0.07833 | B6 log2 (H4K5ac8ac/H4K5) (protein BUB3 (J3QT28), replicate B6): 0.05185 | A6 log2 (H4K5ac8ac/H4K5) (protein C11orf84 (Q9BUA3), replicate A6): -0.4738 | B6 log2 (H4K5ac8ac/H4K5) (protein C11orf84 (Q9BUA3), replicate B6): -0.01921 | A6 log2 (H4K5ac8ac/H4K5) (protein CCAR1 (Q8IX12), replicate A6): -0.2516 | B6 log2 (H4K5ac8ac/H4K5) (protein CCAR1 (Q8IX12), replicate B6): -0.018 | A6 log2 (H4K5ac8ac/H4K5) (protein CCT2 (P78371), replicate A6): 0.3921 | B6 log2 (H4K5ac8ac/H4K5) (protein CCT2 (P78371), replicate B6): 0.08005 | A6 log2 (H4K5ac8ac/H4K5) (protein CCT3 (B4DUR8), replicate A6): 0.2904 | B6 log2 (H4K5ac8ac/H4K5) (protein CCT3 (B4DUR8), replicate B6): 0.07923 | A6 log2 (H4K5ac8ac/H4K5) (protein CHAF1A (Q13111), replicate A6): -0.1099 | B6 log2 (H4K5ac8ac/H4K5) (protein CHAF1A (Q13111), replicate B6): 0.08018 | A6 log2 (H4K5ac8ac/H4K5) (protein CHD1L (A0A494C1F7), replicate A6): 0.1451 | B6 log2 (H4K5ac8ac/H4K5) (protein CHD1L (A0A494C1F7), replicate B6): 0.0657 | A6 log2 (H4K5ac8ac/H4K5) (protein CORO1B (Q9BR76), replicate A6): 0.2889 | B6 log2 (H4K5ac8ac/H4K5) (protein CORO1B (Q9BR76), replicate B6): 0.06919 | A6 log2 (H4K5ac8ac/H4K5) (protein CPOX (P36551), replicate A6): 0.124 | B6 log2 (H4K5ac8ac/H4K5) (protein CPOX (P36551), replicate B6): 0.04785 | A6 log2 (H4K5ac8ac/H4K5) (protein DNAJA2 (O60884), replicate A6): 0.3475 | B6 log2 (H4K5ac8ac/H4K5) (protein DNAJA2 (O60884), replicate B6): -0.007896 | A6 log2 (H4K5ac8ac/H4K5) (protein DYNC1LI1 (Q9Y6G9), replicate A6): 0.04173 | B6 log2 (H4K5ac8ac/H4K5) (protein DYNC1LI1 (Q9Y6G9), replicate B6): -0.03653 | A6 log2 (H4K5ac8ac/H4K5) (protein DYNC1LI2 (O43237), replicate A6): -0.06254 | B6 log2 (H4K5ac8ac/H4K5) (protein DYNC1LI2 (O43237), replicate B6): -0.0172 | A6 log2 (H4K5ac8ac/H4K5) (protein EEF1A2 (Q05639), replicate A6): 0.1545 | B6 log2 (H4K5ac8ac/H4K5) (protein EEF1A2 (Q05639), replicate B6): 0.03088 | A6 log2 (H4K5ac8ac/H4K5) (protein EIF3G (O75821), replicate A6): -0.1739 | B6 log2 (H4K5ac8ac/H4K5) (protein EIF3G (O75821), replicate B6): 0.07863 | A6 log2 (H4K5ac8ac/H4K5) (protein EML4 (Q9HC35), replicate A6): -0.3051 | B6 log2 (H4K5ac8ac/H4K5) (protein EML4 (Q9HC35), replicate B6): 0.01001 | A6 log2 (H4K5ac8ac/H4K5) (protein EXOSC10 (Q01780), replicate A6): 0.04791 | B6 log2 (H4K5ac8ac/H4K5) (protein EXOSC10 (Q01780), replicate B6): -0.03432 | A6 log2 (H4K5ac8ac/H4K5) (protein FEN1 (P39748), replicate A6): 0.2678 | B6 log2 (H4K5ac8ac/H4K5) (protein FEN1 (P39748), replicate B6): 0.04436 | A6 log2 (H4K5ac8ac/H4K5) (protein FKBP4 (Q02790), replicate A6): -0.547 | B6 log2 (H4K5ac8ac/H4K5) (protein FKBP4 (Q02790), replicate B6): -0.03149 | A6 log2 (H4K5ac8ac/H4K5) (protein FTO (A0A1B0GTY1), replicate A6): 0.04491 | B6 log2 (H4K5ac8ac/H4K5) (protein FTO (A0A1B0GTY1), replicate B6): 0.03394 | A6 log2 (H4K5ac8ac/H4K5) (protein FUBP1 (Q96AE4), replicate A6): -0.499 | B6 log2 (H4K5ac8ac/H4K5) (protein FUBP1 (Q96AE4), replicate B6): 0.06296 | A6 log2 (H4K5ac8ac/H4K5) (protein GATAD2B (A0A0U1RRM1), replicate A6): 0.09181 | B6 log2 (H4K5ac8ac/H4K5) (protein GATAD2B (A0A0U1RRM1), replicate B6): -0.04991 | A6 log2 (H4K5ac8ac/H4K5) (protein GMPS (P49915), replicate A6): 0.3016 | B6 log2 (H4K5ac8ac/H4K5) (protein GMPS (P49915), replicate B6): -0.02008 | A6 log2 (H4K5ac8ac/H4K5) (protein GPKOW (Q92917), replicate A6): -0.007755 | B6 log2 (H4K5ac8ac/H4K5) (protein GPKOW (Q92917), replicate B6): 0.07952 | A6 log2 (H4K5ac8ac/H4K5) (protein GTF2I (P78347), replicate A6): 0.3176 | B6 log2 (H4K5ac8ac/H4K5) (protein GTF2I (P78347), replicate B6): -0.03285 | A6 log2 (H4K5ac8ac/H4K5) (protein HADHA (P40939), replicate A6): 0.03109 | B6 log2 (H4K5ac8ac/H4K5) (protein HADHA (P40939), replicate B6): 0.08176 | A6 log2 (H4K5ac8ac/H4K5) (protein HNRNPA2B1 (P22626), replicate A6): -0.08912 | B6 log2 (H4K5ac8ac/H4K5) (protein HNRNPA2B1 (P22626), replicate B6): 0.03979 | A6 log2 (H4K5ac8ac/H4K5) (protein HNRNPAB (D6R9P3), replicate A6): -0.001487 | B6 log2 (H4K5ac8ac/H4K5) (protein HNRNPAB (D6R9P3), replicate B6): 0.001897 | A6 log2 (H4K5ac8ac/H4K5) (protein HNRNPD (D6RAF8), replicate A6): -0.05205 | B6 log2 (H4K5ac8ac/H4K5) (protein HNRNPD (D6RAF8), replicate B6): 0.06546 | A6 log2 (H4K5ac8ac/H4K5) (protein HNRNPM (A0A087X0X3), replicate A6): 0.04259 | B6 log2 (H4K5ac8ac/H4K5) (protein HNRNPM (A0A087X0X3), replicate B6): 0.03533 | A6 log2 (H4K5ac8ac/H4K5) (protein HNRNPUL1 (A0A0A0MRA5), replicate A6): 0.04263 | B6 log2 (H4K5ac8ac/H4K5) (protein HNRNPUL1 (A0A0A0MRA5), replicate B6): 0.07976 | A6 log2 (H4K5ac8ac/H4K5) (protein HSP90AB1 (P08238), replicate A6): 0.1705 | B6 log2 (H4K5ac8ac/H4K5) (protein HSP90AB1 (P08238), replicate B6): -0.003539 | A6 log2 (H4K5ac8ac/H4K5) (protein ILF3 (Q12906), replicate A6): -0.01185 | B6 log2 (H4K5ac8ac/H4K5) (protein ILF3 (Q12906), replicate B6): 0.0307 | A6 log2 (H4K5ac8ac/H4K5) (protein IRS4 (O14654), replicate A6): 0.9009 | B6 log2 (H4K5ac8ac/H4K5) (protein IRS4 (O14654), replicate B6): 0.04996 | A6 log2 (H4K5ac8ac/H4K5) (protein KHDRBS1 (Q07666), replicate A6): -0.03568 | B6 log2 (H4K5ac8ac/H4K5) (protein KHDRBS1 (Q07666), replicate B6): 0.03173 | A6 log2 (H4K5ac8ac/H4K5) (protein KIF23 (A0A2U3TZL8), replicate A6): -0.125 | B6 log2 (H4K5ac8ac/H4K5) (protein KIF23 (A0A2U3TZL8), replicate B6): 0 | A6 log2 (H4K5ac8ac/H4K5) (protein LARS (Q9P2J5), replicate A6): 0.1335 | B6 log2 (H4K5ac8ac/H4K5) (protein LARS (Q9P2J5), replicate B6): 0.07151 | A6 log2 (H4K5ac8ac/H4K5) (protein LEMD3 (Q9Y2U8), replicate A6): 0.3015 | B6 log2 (H4K5ac8ac/H4K5) (protein LEMD3 (Q9Y2U8), replicate B6): -0.02986 | A6 log2 (H4K5ac8ac/H4K5) (protein MAZ (I3L2Z5), replicate A6): 0.4619 | B6 log2 (H4K5ac8ac/H4K5) (protein MAZ (I3L2Z5), replicate B6): 0.02009 | A6 log2 (H4K5ac8ac/H4K5) (protein MCM2 (P49736), replicate A6): -0.3105 | B6 log2 (H4K5ac8ac/H4K5) (protein MCM2 (P49736), replicate B6): 0.01892 | A6 log2 (H4K5ac8ac/H4K5) (protein MCM4 (E5RG31), replicate A6): -0.08812 | B6 log2 (H4K5ac8ac/H4K5) (protein MCM4 (E5RG31), replicate B6): 0.02676 | A6 log2 (H4K5ac8ac/H4K5) (protein MCM5 (P33992), replicate A6): 0.07464 | B6 log2 (H4K5ac8ac/H4K5) (protein MCM5 (P33992), replicate B6): 0.03074 | A6 log2 (H4K5ac8ac/H4K5) (protein MCM6 (Q14566), replicate A6): 0.0904 | B6 log2 (H4K5ac8ac/H4K5) (protein MCM6 (Q14566), replicate B6): 0.06523 | A6 log2 (H4K5ac8ac/H4K5) (protein MLL2 (O14686), replicate A6): 0.2969 | B6 log2 (H4K5ac8ac/H4K5) (protein MLL2 (O14686), replicate B6): 0.009441 | A6 log2 (H4K5ac8ac/H4K5) (protein MRPL37 (Q9BZE1), replicate A6): 0.1893 | B6 log2 (H4K5ac8ac/H4K5) (protein MRPL37 (Q9BZE1), replicate B6): -0.03363 | A6 log2 (H4K5ac8ac/H4K5) (protein MYH9 (P35579), replicate A6): 0.0533

Reference: PMC11005723, “Development of Complementary Photo‐arginine/lysine to Promote Discovery of Arg/Lys hPTMs Interactomes” (Advanced Science, 2024)
